In paper PMC8951032, “Study of Biological Activities and ADMET-Related Properties of Novel Chlorinated N-arylcinnamamides” (International Journal of Molecular Sciences, 2022):
Converted amounts (≈) assume the structure as drawn. Where two headings read alike, the source gives them in different places.

What was measured:
[1] = Lipophilicity determination by RP-HPLC (log k, log D); assay type: physicochemical; conditions: for log k: MeOH 72%/H2O 28%; for log D6.5: MeOH 72%/acetate buffered saline pH 6.5; for log D7.4: MeOH 72%/acetate buffered saline pH 7.4
Procedure: In addition to the mentioned ADME profile, it is responsible for interactions with biological targets. Lipophilicity is recognized as one of the most important parameters influencing ADME and bioactivity and is also part, e.g., of Lipinski’s Rule of Five (Ro5). This thermodynamic parameter describing the molecule’s affinity for an aqueous or relatively lipophilic environment can be characterized by the logarithm of the partition coefficient (log P). In this study, lipophilicity was measured by reversed-phase high-performance liquid chromatography (RP-HPLC) under isocratic conditions with methanol as the organic modifier in the aqueous mobile phase and the logarithm of the capacity factor k was calculated, which is used as the lipophilicity index converted to the log P scale. In addition to the log k values, the logarithm of the distribution coefficient DpH at pH 6.5 and 7.4 was determined to clarify the behavior of the compounds under physiological conditions and possible ionization. Instead of water, a buffer of suitable pH was used as part of the mobile phase. In addition to the above-mentioned experimental methods, commercially available ChemBioDraw Ultra 13.0 and ACD/Percepta ver. 2012 programs were used to calculate the lipophilicity values of all prepared compounds.
A HPLC separation module Waters Alliance 2695 XE equipped with a Waters Dual Absorbance Detector 2486 (Waters Corp., Milford, MA, USA) was used. A chromatographic column Symmetry® C18 5 μm, 4.6 × 250 mm, Part No. W21751W016 (Waters Corp., Milford, MA, USA) was used. The HPLC separation process was monitored by Empower® 3 Chromatography Manager Software (Waters Corp.). Isocratic elution by a mixture of MeOH p.a. (72%) and H2O-HPLC Mili-Q grade (28%) as a mobile phase was used for the determination of capacity factor k. Isocratic elution by a mixture of MeOH p.a. (72%) and acetate buffered saline (pH 7.4 and pH 6.5) (28%) as a mobile phase was used for the determination of distribution coefficient expressed as D7.4 and D6.5. The total flow of the column was 1.0 mL/min, injection 20 μL, column temperature 40 °C, and sample temperature 10 °C. The detection wavelength of 210 nm was chosen. A KI methanolic solution was used for the determination of the dead times (tD). Retention times (tR) were measured in minutes. The capacity factors k were calculated according to the formula k = (tR − tD)/tD, where tR is the retention time of the solute, and tD is the dead time obtained using an unretained analyte. The distribution coefficients DpH were calculated according to the formula DpH = (tR − tD)/tD. Each experiment was repeated three times.

[2] = test system: Mycobacterium smegmatis ATCC 700084; assay: In vitro antimycobacterial activity, broth dilution MIC; assay type: cell-based; conditions: Mycolicibacterium smegmatis
[3] = test system: Mycobacterium marinum CAMP 5644; assay: as above; assay type: cell-based; conditions: CAMP5644, 504 h
[4] = ATCC700084, 72 h, M. smegmatis ATCC 700084, three days, read-out: MIC MS
[5] = ATCC700084, M. smegmatis ATCC 700084, read-out: log(1/MIC [M]) MS (converted)
[6] = M. marinum CAMP 5644, 21 days, read-out: MIC MM
[7] = M. marinum CAMP 5644, read-out: log(1/MIC [M]) MM (converted)

Row | SMILES | log k [1] | log D6.5 [1] | log D7.4 [1] | MIC [2, 4] [M] | MIC [2, 5] [M] | MIC [3, 6] [M] | MIC [3, 7] [M]
1 | O=C(/C=C/c1ccc(Cl)cc1)Nc1ccccc1 [1a, (2E)-3-(4-Chlorophenyl)-N-phenylprop-2-enamide] | 0.4490 | 0.4428 | 0.4515 | – | – | – | –
2 | O=C(/C=C/c1ccc(Cl)cc1)Nc1ccccc1F [1b, (2E)-3-(4-Chlorophenyl)-N-(2-fluorophenyl)prop-2-enamide] | 0.6459 | 0.5908 | 0.5965 | – | – | – | –
3 | O=C(/C=C/c1ccc(Cl)cc1)Nc1cccc(F)c1 [1c, (2E)-3-(4-Chlorophenyl)-N-(3-fluorophenyl)prop-2-enamide] | 0.7859 | 0.7296 | 0.7325 | – | – | – | –
4 | O=C(/C=C/c1ccc(Cl)cc1)Nc1ccc(F)cc1 [1d, (2E)-3-(4-Chlorophenyl)-N-(4-fluorophenyl)prop-2-enamide] | 0.7808 | 0.7252 | 0.7290 | – | – | – | –
5 | O=C(/C=C/c1ccc(Cl)cc1)Nc1ccccc1Cl [1e, (2E)-N-(2-Chlorophenyl)-3-(4-chlorophenyl)prop-2-enamide] | 0.5241 | 0.4650 | 0.4724 | – | – | – | –
6 | O=C(/C=C/c1ccc(Cl)cc1)Nc1cccc(Cl)c1 [1f, (2E)-N-(3-Chlorophenyl)-3-(4-chlorophenyl)prop-2-enamide] | 0.6192 | 0.5603 | 0.5666 | – | – | – | –
7 | O=C(/C=C/c1ccc(Cl)cc1)Nc1ccc(Cl)cc1 [1g, (2E)-N,3-bis(4-Chlorophenyl)prop-2-enamide] | 0.5598 | 0.5012 | 0.5065 | – | – | – | –
8 | O=C(/C=C/c1ccc(Cl)cc1)Nc1ccccc1C(F)(F)F [1h, (2E)-3-(4-Chlorophenyl)-N-[2-(trifluoromethyl)phenyl]prop-2-enamide] | 0.5506 | 0.4938 | 0.5010 | – | – | – | –
9 | O=C(/C=C/c1ccc(Cl)cc1)Nc1ccc(C(F)(F)F)cc1 [1j, (2E)-3-(4-Chlorophenyl)-N-[4-(trifluoromethyl)phenyl]prop-2-enamide] | 0.9078 | 0.8541 | 0.8560 | – | – | – | –
10 | O=C(/C=C/c1ccc(Cl)cc1)Nc1ccc(OC(F)(F)F)cc1 [1k, (2E)-3-(4-Chlorophenyl)-N-[4-(trifluoromethoxy)phenyl]prop-2-enamide] | 0.8759 | 0.8702 | 0.8754 | – | – | – | –
11 | O=C(/C=C/c1ccc(Cl)cc1)Nc1ccc(F)cc1F [1l, (2E)-3-(4-Chlorophenyl)-N-(2,4-difluorophenyl)prop-2-enamide] | 0.5746 | 0.5172 | 0.5223 | – | – | – | –
12 | O=C(/C=C/c1ccc(Cl)cc1)Nc1cc(F)cc(F)c1 [1m, (2E)-3-(4-Chlorophenyl)-N-(3,5-difluorophenyl)prop-2-enamide] | 0.8054 | 0.7502 | 0.7537 | – | – | – | –
13 | O=C(/C=C/c1ccc(Cl)cc1)Nc1ccc(Cl)cc1Cl [1n, (2E)-3-(4-Chlorophenyl)-N-(2,4-dichlorophenyl)prop-2-enamide] | 0.9665 | 0.9141 | 0.9170 | – | – | – | –
14 | O=C(/C=C/c1ccc(Cl)cc1)Nc1cc(Cl)ccc1Cl [1o, (2E)-3-(4-Chlorophenyl)-N-(2,5-dichlorophenyl)prop-2-enamide] | 0.9507 | 0.8986 | 0.9010 | – | – | – | –
15 | O=C(/C=C/c1ccc(Cl)c(Cl)c1)Nc1ccccc1F [2b, (2E)-N-(2-Fluorophenyl)-3-(3,4-dichlorophenyl)prop-2-enamide] | 0.7764 | 0.8203 | 0.8019 | – | – | – | –
16 | O=C(/C=C/c1ccc(Cl)c(Cl)c1)Nc1cccc(F)c1 [2c, (2E)-N-(3-Fluorophenyl)-3-(3,4-dichlorophenyl)prop-2-enamide] | 0.9071 | 0.9453 | 0.8735 | – | – | – | –
17 | O=C(/C=C/c1ccc(Cl)c(Cl)c1)Nc1ccc(F)cc1 [2d, (2E)-N-(4-Fluorophenyl)-3-(3,4-dichlorophenyl)prop-2-enamide] | 0.9009 | 0.9381 | 0.8660 | – | – | – | –
18 | O=C(/C=C/c1ccc(Cl)c(Cl)c1)Nc1ccccc1Cl [2e, (2E)-N-(2-Chlorophenyl)-3-(3,4-dichlorophenyl)prop-2-enamide] | 0.6488 | 0.6925 | 0.6739 | – | – | – | –
19 | O=C(/C=C/c1ccc(Cl)c(Cl)c1)Nc1cccc(Cl)c1 [2f, (2E)-N-(3-Chlorophenyl)-3-(3,4-dichlorophenyl)prop-2-enamide] | 0.7404 | 0.7816 | 0.7616 | – | – | – | –
20 | O=C(/C=C/c1ccc(Cl)c(Cl)c1)Nc1ccc(Cl)cc1 [2g, (2E)-N-(4-Chlorophenyl)-3-(3,4-dichlorophenyl)prop-2-enamide] | 0.6786 | 0.7224 | 0.7021 | – | – | – | –
21 | O=C(/C=C/c1ccc(Cl)c(Cl)c1)Nc1ccccc1C(F)(F)F [2h, (2E)-3-(3,4-Dichlorophenyl)-N-[2-(trifluoromethyl)phenyl]prop-2-enamide] | 0.6836 | 0.7295 | 0.6526 | – | – | – | –
22 | O=C(/C=C/c1ccc(Cl)c(Cl)c1)Nc1ccc(F)cc1F [2l, (2E)-3-(3,4-Dichlorophenyl)-N-(2,4-difluorophenyl)prop-2-enamide] | 0.6989 | 0.7094 | 0.6632 | – | – | – | –
23 | O=C(/C=C/c1ccc(Cl)c(Cl)c1)Nc1cc(F)cc(F)c1 [2m, (2E)-3-(3,4-Dichlorophenyl)-N-(3,5-difluorophenyl)prop-2-enamide] | 0.9298 | 0.9345 | 0.8882 | – | – | – | –
24 | O=C(/C=C/c1ccc(Cl)c(Cl)c1)Nc1ccc(Cl)cc1Cl [2n, (2E)-N-(2,4-Dichlorophenyl)-3-(3,4-dichlorophenyl)prop-2-enamide] | 1.0932 | 1.0985 | 1.0565 | – | – | – | –
25 | O=C(/C=C/c1ccc(Cl)c(Cl)c1)Nc1cc(Cl)ccc1Cl [2o, (2E)-N-(2,5-Dichlorophenyl)-3-(3,4-dichlorophenyl)prop-2-enamide] | 1.0840 | 1.0887 | 1.0474 | – | – | – | –
26 | O=C(/C=C/c1ccc(Cl)c(Cl)c1)Nc1cc(Cl)cc(Cl)c1 [2p, (2E)-N-(3,5-Dichlorophenyl)-3-(3,4-dichlorophenyl)prop-2-enamide] | 1.3043 | 1.3336 | 1.3080 | – | – | – | –
27 | NNC(=O)c1ccncc1 [INH, isoniazid, reference compound] | – | – | – | 0.000117 (≈ 16 µg/mL) | 0.000117 (≈ 16.1 µg/mL) | 0.000467 (≈ 64 µg/mL) | 0.000468 (≈ 64.1 µg/mL)
28 | CO[C@H]1/C=C/O[C@@]2(C)Oc3c(C)c(O)c4c(O)c(c(/C=N/N5CCN(C)CC5)c(O)c4c3C2=O)NC(=O)/C(C)=C\C=C\[C@H](C)[C@H](O)[C@@H](C)[C@@H](O)[C@@H](C)[C@H](OC(C)=O)[C@@H]1C [RIF, rifampicin, reference compound] | – | – | – | 1.94e-05 (≈ 16 µg/mL) | 1.95e-05 (≈ 16 µg/mL) | 2.43e-06 (≈ 2 µg/mL) | 2.45e-06 (≈ 2.02 µg/mL)
